The text below walks through data of patent US4021546A (priority 1976, dated 1977).

Structures are written as SMILES. In brackets after ≈: the same amount, converted by molar mass.

For series [1] the following is noted: recent reports; cited from earlier work.
The test system of series [2] is animal enzymes. Particulars: more recent studies; cited from earlier work.
For series [3] the following is noted: 25° C.; cited from earlier work.
For series [4] the following is noted: from the gastrointestinal tract, cited from earlier work.
The conditions of series [5]: compared to digitoxin; cited from earlier work.
For series [6] the following is noted: in vivo; cited from earlier work.
A short description of series [7]: physchem. Particulars: 0.01 n hcl.

On to `CO[C@H]1[C@@H](O)C[C@H](O[C@H]2[C@@H](O)C[C@H](O[C@H]3[C@@H](O)C[C@H](O[C@H]4CC[C@@]5(C)[C@H](CC[C@@H]6[C@@H]5C[C@@H](O)[C@]5(C)[C@@H](C7=CC(=O)OC7)CC[C@]65O)C4)O[C@@H]3C)O[C@@H]2C)O[C@@H]1C` [4'"-methyldigoxin], for which, in series [1], the demethylation in man entry is listed as “actually demethylated in man”. Moreover, in series [2], the “resistance to degradation by animal enzymes” value was “very resistant to degradation by animal enzymes”.

Regarding `C[C@H]1O[C@@H](O[C@H]2[C@@H](O)C[C@H](O[C@H]3[C@@H](O)C[C@H](O[C@H]4CC[C@@]5(C)[C@H](CC[C@@H]6[C@@H]5C[C@@H](O)[C@]5(C)[C@@H](C7=CC(=O)OC7)CC[C@]65O)C4)O[C@@H]3C)O[C@@H]2C)C[C@H](O)[C@@H]1O` [digoxin], the “solubility per ml of 0.1 N HCl” value in series [3] was “about 78 mcg/ml”. In series [4] (compared to digitoxin), the “completeness of absorption vs digitoxin” value is “not as completely absorbed”. In addition, the extent of absorption in series [4] is 50% to 70. For the same compound, in series [5], the duration of action result was “shorter” and the onset of action entry is recorded as “quite more rapid”. The “closeness of therapeutic and toxic dose” value in series [6] was “extremely close”. Moreover, in series [7], the solubility (in general, the dissolved amount per volume that the medium holds) was roughly 0.078 mg/mL (≈ 99.9 µM).
